Assay results taken from patent publication US7998492B2, “Methods and products related to treatment and prevention of hepatitis C virus infection” (Coley Pharmaceutical Group, Inc., priority 2002, dated 2011).
Entries after “also recorded” stand apart in the source; their conditions may differ.

Assays:
[1] = system: PBMCs from normal or HCV infected subjects; assay: IFN-α secretion by PBMC with Intron A, Ribavirin or CpG alone or in combination (ELISA); type: cell-based, human
Excerpt: (§1) All oligonucleotide stocks were resuspended in TE buffer at pH 8.0 (OmniPer®; EM Science, Gibbstown, N.J.). Dilutions of various ODNs were made in RPMI 1640 complete media (Gibco BRL, Grand Island, N.Y.) containing 10% heat inactivated, normal human AB serum (Wisent Inc, St. Bruno, QC) and 1% penicillin/streptomycin (Gibco BRL, Grand Island, N.Y.) just prior to their use in cell assays. For the exogenous IFN-α synergy experiments, Intron A (Interferon Alfa-2b, DIN 02223406, Schering Canada Inc., Pointe-Claire, Quebec, Canada) was added to the ODN solutions to give final concentrations of 125 or 1000 IU/ml. Ribavirin (CAS 36791-04-5, Calbiochem, CN Biosciences Inc., La Jolla, Calif., USA) was reconstituted with sterile distilled water to produce a 500 μm stock and diluted in media as described above, to give a final concentration of 5 μm in wells. Cells were incubated at 37° C. with 5% CO2. After 48 h, cell supernatants were collected from each well and frozen at −80° C.
(§2) Peripheral blood mononuclear cells (PBMCs) were purified by centrifugation over Ficoll-Hypaque (Amersham Pharmacia Biotech, Uppsala, Sweden) at 400×g for, 35 min. Cells were resuspended at a concentration of 10×10^6/ml in RPMI complete media containing 10% normal human AB serum (heat inactivated) and 1% penicillin/streptomycin.
(§3) Freshly isolated PBMCs were resuspended at 10×10^6/ml (2× final concentration) and 100 μl of cells were added to each well of a 96 well flat-bottom plate containing an equal volume of ODN solution (2× final desired concentration). A range of concentrations (1, 3, 6 μg/ml) was tested for each ODN. Cells were incubated at 37° C. with 5% CO2. After 48 h, cell supernatants were collected from each well and frozen at −80° C. until assayed.
(§4) IFN-α, IP-10, IL-10 and IFN-levels in supernatants were measured using commercial ELISA Kits (R&D Systems, Minneapolis, Minn., USA; IP-10, Cat# DIP 100, IL-10, Cat# D1000, IFN-g Cat# DIF50 or PBL Biomedical, IFN-α Cat# 4110S). When measured ELISA values were below the detection limit of the kit as specified by the manufacturer, a value equal to the lowest detectable limit was entered into data tables.

[2] = system: B cells in PBMCs from HCV-infected or normal donors; assay: B-cell proliferation (3H-thymidine, stimulation index); type: cell-based, human; details: HCV-infected and normal populations, 5 days, FIGS. 8 and 9
Description: as §2
Cells were isolated as described above and resuspended at 1×10^6/ml in complete RPMI media 100 μl of cells were added to each well of round-bottom 96 well plates. ODN solutions (100 μl) were added to wells to give the selected range of final concentrations (1, 3, 6 μg/ml). Cells were cultured for 5 days and then pulsed with ^3H-Thymidine (1 μCi/well) for 18 h, before harvesting onto filter paper for measuring radioactivity. Results are reported as stimulation index (SI) with respect to untreated media control.

[3] = system: PBMCs from HCV-infected subjects; assay: IFN-α secretion by PBMC from HCV chronic carriers after 48 h with CpG ODN (ELISA); type: cell-based, human; details: for R, linear regression of number of pDC against amount of IFN-α secreted: HCV infected subjects, pDC number by FACS; for IFN-α secretion level: PBMC from HCV chronic carriers, 48 h, FIG. 1/3/4
Excerpt: as §1, §2, §3, §4

[4] = system: PBMCs from normal subjects; assay: IFN-α secretion by PBMC from normal subjects after 48 h with CpG ODN (ELISA); type: cell-based, human; details: for IFN-α secretion level: PBMC from normal volunteers, 48 h, FIG. 1/3; for R, linear regression of number of pDC against amount of IFN-α secreted: normal subjects, pDC number by FACS
Excerpt: as §1, §2, §3, §4

[5] = system: PBMCs from normal or HCV-infected subjects; assay: IFN-γ secretion by PBMC after 48 h with CpG ODN (ELISA); type: cell-based, human; details: HCV-infected and normal PBMCs similar, FIG. 5/6
Description: as §2, §3, §4

[6] = system: PBMCs from normal or HCV-infected subjects; assay: IP-10 secretion by PBMC after 48 h with CpG ODN (ELISA); type: cell-based, human; details: similar in normal subjects and HCV chronic carriers, FIG. 7
Description: as §2, §3, §4

[7] = adjuvant to a commercial hepatitis B vaccine, phase I/II; cited from earlier work

| Compound | induction of IFN-α secretion ([1]; HCV-infected PBMCs, on their own or together, FIG. 11) | induction of IFN-α secretion ([1]; PBMCs from normal or HCV infected subjects, alone or in combination) | effect on the efficacy of CpG ([1]; combined with CpG ODN) | immunostimulatory activity ([1]; human PBMCs) | endogenous IFN-α production ([1]; in combination with Intron A) | B cell stimulation [2] | synergy with exogenous IFN-α for IFN-α secretion ([1]; PBMCs from HCV infected subjects, combination with Intron-A) | R, linear regression of number of pDC against amount of IFN-α secreted [3] | IFN-α secretion level ([3]; listed as C) | IFN-α secretion level [4] | R, linear regression of number of pDC against amount of IFN-α secreted [4] | IFN-γ secretion level [5] | IP-10 secretion level [6] | IFN-α secretion level ([3]; listed as B) | IFN-α secretion level ([3]; listed as Class B) | function as vaccine adjuvant [7] | IFN-α induced relative to the normal level ([3]; HCV chronic carrier PBMC versus normal PBMC, FIG. 1) | IFN-α secretion level [3] |
| --- | --- | --- | --- | --- | --- | --- | --- | --- | --- | --- | --- | --- | --- | --- | --- | --- | --- | --- |
| NC(=O)c1ncn([C@@H]2O[C@H](CO)[C@@H](O)[C@H]2O)n1 [Ribavirin] | Neither Ribavirin nor Intron A, on their own or together, resulted in the induction of IFN-α secretion | Neither commercial Intron-A (IFN-α-2b) nor Ribavirin, alone or in combination, were capable of inducing IFN-α secretion | reduced the efficacy of CpG | no immunostimulatory activity | did not enhance endogenous IFN-α production |  |  |  |  |  |  |  |  |  |  |  |  |  |
| TCGTCGTTTTCGGCGGCCGCCG (chemistry not given here) [SEQ ID NO. 4, C class CpG ODN] |  |  |  |  |  | strongly activated B cells | synergy | 0.08 | the same as those obtained with the normal PBMCs; also recorded: higher levels | moderately high levels | 0.58 | high concentrations | next highest |  |  |  |  |  |
| TCGTCGTTTTGTCGTTTTGTCGTT [SEQ ID NO. 2] |  |  |  |  |  | strongly activated B cells |  |  |  | only low levels |  | moderate amounts | lowest | the same as those obtained with the normal PBMCs | lower levels | functions well as a vaccine adjuvant |  |  |
| G-G-GGACGACGTCGTGG-G-G-G-G-G (DNA GGGGACGACGTCGTGGGGGGG; chemistry not given here) [SEQ ID NO. 1, A class CpG ODN] |  |  |  |  |  | poor stimulator of B cells |  | 0.02 |  | very high levels | 0.43 | low levels | Highest levels |  |  |  | about 50% | higher levels |
